Test results taken from patent publication US20210061861A1, “D-PEPTIDIC COMPOUNDS FOR VEGF” (Reflexion Pharmaceuticals, Inc., priority 2019, published 2021).
Values joined by “and” are separate entries in the source; they are usually repeats but may differ in a detail not shown here. Equal values may be shown once. Bridges are numbered along the chain shown (N, C = ends). Where no end group is shown, it is not given here. [ ]: non-standard residue; d: D form.

Tests used:
[1] = target: T1, VEGF-A121 binding to VEGFR1-Fc (Homo sapiens, UniProt P15692); assay: non-equilibrium VEGF-A blocking ELISA on VEGFR1-Fc; type: biochemical; conditions: for improvement of IC50 over 11055: non-equilibrium blocking ELISA
T1 construct: purchased Acro Biosystems (VEGF-A121); R&D Systems (VEGFR1-Fc) VE1-H82E7; 3516-FL-050
T1 sequence (P15692 27-147 isoform P15692-9 limits assumed): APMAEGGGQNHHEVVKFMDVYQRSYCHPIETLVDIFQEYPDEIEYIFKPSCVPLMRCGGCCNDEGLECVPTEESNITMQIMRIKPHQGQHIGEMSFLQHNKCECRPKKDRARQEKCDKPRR

[2] = target: T1, VEGF-A121 binding to VEGFR1-Fc; assay: equilibrium binding VEGF-A121/VEGFR1 blocking ELISA; type: biochemical; conditions: IC50, blocking VEGF-A binding to VEGFR1-Fc, 150 pM VEGF-A, overnight incubation
Description: Biotinylated human VEGF-A121 (isoform 121) was purchased from Acro Biosystems (cat #VE1-H82E7). VEGFR-1-Fc was purchased from R&D Systems (cat #3516-FL-050).
The following day, coated wells were blocked with Super Block (Rockland) for 2 hr with shaking at room temp.
Data plotted are mean±standard deviation of triplicate measurements. IC50 values were derived from 3-parameter fits using Prism (GraphPad) and the error reported is derived from fits.

[3] = test system: VEGF-A signaling through VEGFR2; assay: VEGFR2 luciferase reporter cell signaling assay (KDR/NFAT-RE HEK293); type: cell-based; conditions: 150 pM VEGF-A; read-out: IC50, inhibition of VEGFR2 signaling (luciferase)
Description: Here VEGF-A activates VEGFR2 signaling in 293 cells resulting in luciferase expression as a functional readout. Inhibition of VEGF-A signaling in this system results in a loss of luciferase signal.
Measurement of VEGF cellular signaling was performed using the VEGF Bioassay (Promega). Briefly, HEK293 cells are engineered to express VEGFR-2 coupled to a luciferase response element (KDR/NFAT-RE HEK293). VEGF signaling through VEGFR-2 mediates expression of luciferase which can be quantified using bioluminescence. […] Following incubation Bio-Glo is added to wells according to the manufacturer's protocol and relative luminescence units (RLUs) were measured on a PerkinElmer 2300 Enspire Multimode plate reader. Data plotted are mean±standard deviation of triplicate measurements. IC50 values were derived from 3-parameter fits using Prism (GraphPad) and error reported are derived from fits.

VEGF-A = target: T2, VEGF-A (Homo sapiens, UniProt P15692); assay: SPR binding of D-peptidic compounds to L-VEGF-A; set-up: Biotinylated VEGF-A(8-109) was immobilized on a biotin CAPture chip; conditions: for affinity improvement over 11055: SPR KD ratio versus parent 11055
T2 sequence (P15692 214-315): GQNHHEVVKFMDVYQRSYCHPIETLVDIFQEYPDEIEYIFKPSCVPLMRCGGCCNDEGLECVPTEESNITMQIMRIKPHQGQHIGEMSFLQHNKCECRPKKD
Description: Surface plasmon resonance (SPR) binding measurements were carried out on a Biacore S200 (GE). Biotinylated VEGF-A(8-109) was immobilized on a biotin CAPture chip (GE) and serial dilutions of D-proteins were flowed over the chip at 30 μL/min in running buffer (10 mM Hepes, pH 7.4, 150 mM NaCl, 0.05% P20). […] All measurements were carried out at 25° C. SPR data are representative of multiple independent titrations. Kinetic fits were performed using Biacore software using a global single site binding model.

[4] = test system: VEGF-A165-induced vascular leakage; assay: rabbit eye model of wet AMD, fluorescein angiography; type: in vivo; conditions: single intravitreal dose 1.0 mg
Description: FIG. 44A-44B show in vivo activity of D-protein RFX-980869 in a rabbit eye model of wet AMD. (FIG. 44A) Representative fluorescein angiography (FA) images depicting the extent of VEGF-A165-induced vascular leakage at Day 5 and Day 26 post administration of respective drugs (control=no drug treatment). (FIG. 44B) Plots of individual FA scores at Day 5 and Day 26. Scoring is as follows: 0=major vessels straight with some tortuosity of small vessels and no dilation, 1=increased tortuosity of major vessels and some dilation, 2=leakage between major vessels and significant dilation, 3=leakage between major and minor vessels and minor vessels still visible, 4=leakage between major and minor vessels and minor vessels poorly visible or not visible. N=5 rabbits per group (10 eyes). All data is plotted as mean±SEM. (****p<0.0001, Mann-whitney test)
In the rabbit eye model for wet AMD, intravitreal challenge with exogenous VEGF-A165 induces vascular leakage of the retina that can be monitored using fluorescein angiography (FA). VEGF-A blockade can prevent the diffuse leakage of fluorescein into the eye, which serves as a measure of efficacy. […] After a single intravitreal administration of RFX-980869 at 0.25 mg or 1.0 mg per eye, rabbits were challenged with exogenous VEGF-A twice over a 1-month period (Day 2 and Day 23) and their eyes were examined three days later (Day 5 and Day 26). […]

MC38 colon cancer tumors = assay: MC38 syngeneic tumor model in C57BL6 mice; type: in vivo, mouse
Description: To assess the tumor growth inhibition potential of RFX-980869, the cross-reactivity of RFX-980869 with mouse VEGF-A (data not shown) was studied and used the syngeneic MC38 mouse tumor model. MC38 colon cancer tumors were established in C57BL6 mice transgenic for human PD-1, and reached 82 mm3 prior to initiation of treatment.
Female C57BL6 mice transgenic for human PD-1 (12-13 weeks) were purchased from Beijing Biocytogen Co.). […] MC38 tumor cells (1×10^6) were implanted subcutaneously in the right front flank and tumors were allowed to establish until the mean volume was 82 mm^3. Mice were randomized into treatment groups (N=6 per group) on Day 0 when treatment initiation began. […] All data is plotted as mean ±SEM.

[5] = anti-drug antibodies in serum of the MC38 tumor study; type: in vivo, mouse; conditions: Day 22 serum, low and high dose groups
Description: FIG. 45A-45D show tumor growth inhibition activity of RFX-980869 and lack of immunogenicity. […] N=6 mice per group. (FIG. 45B) Day 15 tumor volumes (*p<0.05, Mann-whitney test) (FIG. 45C) Anti-drug-antibodies from MC38 tumor study measured in Day 22 serum samples using an ELISA for antigen-specific serum IgG. (FIG. 45D) Anti-drug-antibody titers measured from Day 42 serum after subcutaneous immunization of corresponding drugs in BALB/c mice. N=5 mice per group. All data is plotted as mean±SEM.

[6] = subcutaneous immunization in BALB/c mice; conditions: Day 42 serum; 25 μg s.c. Days 0, 21, 35, adjuvant on Day 0
Description: Female BALB/c mice (6-8 weeks) were randomized into immunization groups on Day 0 (n=5 per group) Immunizations were performed on Days 0, 21, 35 by subcutaneous injection of 25 μg of antigen. Antigens were emulsified in adjuvant (TiterMax) for injection on Day 0 and administered in PBS for Days 21 and 35. Serum pre-bleeds were performed on Days 0, 21, 35 prior to immunizations. Final bleeds for max titer response were taken on Day 42.

D-VEGF-A = assay: competitive phage ELISA, D-VEGF-A binding of L-peptidic compounds; conditions: D-VEGF-A binding activity
Description: Compounds of interest were assessed for VEGF-A binding in a competitive phage ELISA assay.

Description for HUVEC cell proliferation: Here, HUVEC cell proliferation is increased in the presence of recombinant VEGF-A and antagonist compounds that block VEGF-A signaling reduce HUVEC cell proliferation.

Substance: [dY][dH][dI][dQ][dW][dV][dC][dK][dN][dA][dK][dE][dD][dA][dI][dA][dE][dL][dK][dK][dA]G[dI][dT][dE][dP][dH][dV][dI][dS][dF][dI][dN][dH][dA][dP][dN][dC][dS][dH][dV][dN]G[dL][dK][dN][dA][dI][dL][dK][dA][dH][dA]-NH2 (disulfide 7-38) [Compound 979110, yhiqwvcknakedaiaelkkaGitephvisfinhapncshvnGlknailkaha]
- IC50 [1]: 3.5 nM
- improvement of IC50 over 11055 [1]: 14.8 fold
- improvement of IC50 over 11055 ([1]; listed as RFX-979110): 15 fold
- IC50 [2]: 7 nM and 7.6 nM
- IC50 [3]: 6.1 nM
- fold weaker than bevacizumab (Avastin) (HUVEC cell proliferation; HUVEC proliferation): 185 fold
- potency improvement over 11055 (HUVEC cell proliferation; HUVEC proliferation): 4 fold
- IC50 (HUVEC cell proliferation; read-out: IC50 for inhibition of cell proliferation in response to VEGF signaling, HUVEC, recombinant VEGF-A): 131 nM
- affinity improvement over 11055 (VEGF-A): ~10 fold
- affinity improvement over 11055 (VEGF-A; listed as RFX-979110): 19 fold
- Kd (VEGF-A; VEGF-A binding affinity (KD) measured by SPR, running text and figure legends, L-VEGF-A): 3.6 nM and 2.3 nM

Substance: aflibercept
- vascular leakage at Day 26 [4]: completely blocked vascular leakage

Substance: nivolumab
- tumor growth versus vehicle control group (MC38 colon cancer tumors; 1 mg/kg biweekly, i.p.): failed to show tumor growth inhibition
- MC38 tumor growth curves (MC38 colon cancer tumors; FIG. 45A, over both dose levels): dose-dependent efficacy
- tumor growth inhibition (MC38 colon cancer tumors; day 15, 3 mg/kg biweekly): 48%
- anti-drug-antibodies, antigen-specific serum IgG titer [5]: saturating levels of IgG titer
- anti-drug-antibody IgG titer after immunization [6]: strong IgG titers

Substance: tidqwllknakedaiaelkkcGitephvisfinhapyvshvnGlkanilkaha [Compound 1.1.1]
- IC50 (D-VEGF-A): 20 to 34 nM
